tested on: Bmi-1; experiment: Sandwich ELISA Assay (Bmi-1 ELISA) in HT-1080 cells; type: cell-based
Description: Cell Seeding and Compound Treatment (Day 1):
HT-1080 cells were seeded at 8000 cells/well (50 μL) in 96-well tissue culture plates. After the cells became adherent (3-4 hours), 2× diluted stocks of test compounds in 50 μL DMEM containing 1% DMSO (final DMSO concentration was 0.5%) were added and the plates were incubated at 37° C. under 5% CO2 for 40-48 hours.
ELISA Plate First Antibody Preparation (Day 2):
The First Antibody (Millipore Mouse, monoclonal to mouse Bmi-1, clone F6, catalog #05-637) diluted to 2 μg/mL in PBS was added (100 μL) to each well of a Nunc MaxiSorp 96-well ELISA plate. The plate was covered with a plate seal and allowed to stand overnight.
Cell Lysate Preparation (Day 3):
Fresh 1× Lysis buffer was prepared on the day of the assay as follows: 1 mM EDTA, 150 mM NaCl, 0.5% Triton-X 100, 10 mM NaF, 20 mM B-Glycerophosphate, 1 mM DTT (in PBS, pH 7.2-7.4) and 1× HALT protease inhibitor cocktail (Pierce #78410).
The 1× Lysis Buffer (40 μL) was added to each well and the plate was shaken for 5-10 minutes on an orbital shaker to allow cell lysis, then diluent (1% BSA in PBS in 0.5% NP40) (100 μL) was added to each well.
A standard curve was prepared at the following Bmi-1 concentrations: 8000, 4000, 2000, 1000, 500, 250, 125, 0 pg/mL The Bmi-1 Recombinant Protein Standard (Novus Biologicals PCGF4 Recombinant Protein (P01), catalog #H00000648-P01) used to prepare the standard curve was stored at −80° C. On first thaw, the Bmi-1 Recombinant Protein Standard was diluted to […] in Blocking Buffer (1% BSA in PBS; BSA: Fisher Scientific Catalog #1600-100). Aliquots were taken and refrozen at −80° C. The aliquots may be kept at 4° C. and reused after first thaw, but only within 1-2 weeks. The Bmi-1 Recombinant Protein Standard contains a GST-fusion tag that appears around 70 Kda on Western Blot.
The prepared ELISA plate was washed 3× with Wash Buffer (0.05% Tween-20 in PBS). The final wash was removed from the plate and the plate was blotted dry. Blocking Buffer (300 μL) (1% BSA in PBS) was added to each well. The plate was covered with a plate seal and incubated at room temperature for 1 hour. The blocked plate was washed 3× with Wash Buffer, then the final wash was removed and the plate was blotted dry. The previously prepared samples and standards were added (100 μL/well) and the plate was covered with a plate seal and incubated at 4° C. overnight.
The prepared ELISA plate was removed from 4° C., incubated at room temperature for 30 minutes, then washed and blotted dry as previously described for Day 3. The Second Antibody (Cell Signaling Rabbit anti-Bmi-1, Cat #2830) diluted to 1:600 in Blocking Buffer was added (100 μL) to each well, except as needed for background control wells. The plate was covered with a plate seal and incubated for 1.5 hrs at room temperature.
The ELISA plate was washed and blotted dry as previously described. The Third Antibody (Cell Signaling HRP conjugated anti-rabbit IgG (CellSignaling, Cat #:7074) diluted to 1:300 in Blocking Buffer was added (100 μL) to each well, except as needed for background control wells. The plate was incubated for 1 hr at room temperature.
The plate was washed and blotted dry as previously described, then prepared TMB substrate (TMB substrate kit, Pierce catalog #34021) (prepared by mixing kit reagents 1:1) (100 μL) was added per well. The plate was incubated for 20-30 minutes at room temperature in the dark, then Stop Solution (2 M sulfuric acid in water) (50 μL) was added per well. The plates were read at OD450 (experimental) and OD570 (reference).

SMILES | EC50
Cc1nc2ccc(C(F)(F)F)cn2c1-c1nccc(Nc2ccc(Br)cc2)n1 [Cpd 19, N-(4-bromophenyl)-2-[2-methyl-6-(trifluoromethyl)imidazo[1,2-a]pyridin-3-yl]pyrimidin-4-amine] | 0.1 to 3 µM
Cc1ccc(Nc2cc(N)nc(-n3c(C)nc4ccccc43)n2)cc1 [Cpd 196, 2-(2-methyl-1H-benzimidazol-1-yl)-N-(4-methylphenyl)pyrimidine-4,6-diamine] | 0.001 to 0.01 µM
Cc1cccc(Nc2nc(-n3c(C)nc4ccccc43)nc(N)c2F)c1 [Cpd 194, 5-fluoro-2-(2-methyl-1H-benzimidazol-1-yl)-N-(3-methylphenyl)pyrimidine-4,6-diamine] | 0.1 to 3 µM
COc1ccc(Nc2nc(-n3c(C)nc4cc(F)c(F)cc43)nc(N)c2F)cc1 [Cpd 214, 2-(5,6-difluoro-2-methyl-1H-benzimidazol-1-yl)-5-fluoro-N-(4-methoxyphenyl)pyrimidine-4,6-diamine] | 0.01 to 0.1 µM
COc1ccc(Nc2nc(-n3c(C)nc4c(F)cc(F)cc43)nc(N)c2F)cc1 [Cpd 242, 2-(4,6-difluoro-2-methyl-1H-benzimidazol-1-yl)-5-fluoro-N-(4-methoxyphenyl)pyrimidine-4,6-diamine] | 0.001 to 0.01 µM
Cc1ccc(Nc2nc(-n3c(C)nc4cc(C#N)ccc43)nc(N)c2F)cc1 [Cpd 227, 1-{4-amino-5-fluoro-6-[(4-methylphenyl)amino]pyrimidin-2-yl}-2-methyl-1H-benzimidazole-5-carbonitrile] | 0.01 to 0.1 µM
CCc1nc2ccccc2n1-c1nc(N)c(F)c(Nc2ccc(OC(F)(F)F)cc2)n1 [Cpd 272, 2-(2-ethyl-1H-benzimidazol-1-yl)-5-fluoro-N-[4-(trifluoromethoxy)phenyl]pyrimidine-4,6-diamine] | 0.01 to 0.1 µM
Cc1nc2ccccc2n1-c1nc(N)cc(Nc2ccc(Br)cc2)n1 [Cpd 212, N-(4-bromophenyl)-2-(2-methyl-1H-benzimidazol-1-yl)pyrimidine-4,6-diamine] | 0.01 to 0.1 µM
Cc1nc2ccccc2n1-c1nc(N)cc(Nc2ccc(OC(F)F)cc2)n1 [Cpd 234, N-[4-(difluoromethoxy)phenyl]-2-(2-methyl-1H-benzimidazol-1-yl)pyrimidine-4,6-diamine] | 0.01 to 0.1 µM
COc1ccc(Nc2nc(-n3c(C)nc4ccc(C#N)cc43)nc(N)c2F)cc1 [Cpd 225, 1-{4-amino-5-fluoro-6-[(4-methoxyphenyl)amino]pyrimidin-2-yl}-2-methyl-1H-benzimidazole-6-carbonitrile] | 0.01 to 0.1 µM
CCc1nc2ccccc2n1-c1nc(N)c(F)c(Nc2ccc(OC(F)F)cc2)n1 [Cpd 123, N-[4-(difluoromethoxy)phenyl]-2-(2-ethyl-1H-benzimidazol-1-yl)-5-fluoropyrimidine-4,6-diamine] | 0.001 to 0.01 µM
COc1ccc2nc(C)n(-c3nc(N)c(F)c(Nc4ccc(OC(F)(F)F)cc4)n3)c2c1 [Cpd 246, 5-fluoro-2-(6-methoxy-2-methyl-1H-benzimidazol-1-yl)-N-[4-(trifluoromethoxy)phenyl]pyrimidine-4,6-diamine] | 0.01 to 0.1 µM
Cc1nc2ncccc2n1-c1nc(N)c(F)c(Nc2ccc(OC(F)F)c(F)c2)n1 [Cpd 139, N-[4-(difluoromethoxy)-3-fluorophenyl]-5-fluoro-2-(2-methyl-1H-imidazo[4,5-b]pyridin-1-yl)pyrimidine-4,6-diamine] | 0.1 to 3 µM
COc1ccc(Nc2nc(-n3c(C)nc4ccc(F)cc43)nc(N)c2F)cc1 [Cpd 179, 5-fluoro-2-(6-fluoro-2-methyl-1H-benzimidazol-1-yl)-N-(4-methoxyphenyl)pyrimidine-4,6-diamine] | 0.001 to 0.01 µM
Cc1ccc(Nc2nc(-c3c(C(F)(F)F)nc4ccccn34)ncc2F)cc1 [Cpd 43, 5-fluoro-N-(4-methylphenyl)-2-[2-(trifluoromethyl)imidazo[1,2-a]pyridin-3-yl]pyrimidin-4-amine] | 0.01 to 0.1 µM
CCc1nc2c(F)cc(F)cc2n1-c1nc(N)c(F)c(Nc2ccc(C(F)(F)F)cc2)n1 [Cpd 129, 2-(2-ethyl-4,6-difluoro-1H-benzimidazol-1-yl)-5-fluoro-N-[4-(trifluoromethyl)phenyl]pyrimidine-4,6-diamine] | 0.01 to 0.1 µM
COc1ccc(Nc2nc(-n3c(C)nc4cc([N+](=O)[O-])ccc43)nc(N)c2F)cc1 [Cpd 255, 5-fluoro-N-(4-methoxyphenyl)-2-(2-methyl-5-nitro-1H-benzimidazol-1-yl)pyrimidine-4,6-diamine] | 0.1 to 3 µM

Next, values leading:

EC50 | SMILES
0.001 to 0.01 µM | CCc1nc2ccccc2n1-c1nc(N)cc(Nc2ccc(OC(F)F)cc2)n1 [Cpd 156, N-[4-(difluoromethoxy)phenyl]-2-(2-ethyl-1H-benzimidazol-1-yl)pyrimidine-4,6-diamine]
0.01 to 0.1 µM | COc1ccc2nc(C)n(-c3nc(N)c(F)c(Nc4ccc(Cl)cc4)n3)c2c1 [Cpd 245, N-(4-chlorophenyl)-5-fluoro-2-(6-methoxy-2-methyl-1H-benzimidazol-1-yl)pyrimidine-4,6-diamine]
0.01 to 0.1 µM | CSc1ccc(Nc2cc(N)nc(-n3c(C)nc4ccccc43)n2)cc1 [Cpd 146, 2-(2-methyl-1H-benzimidazol-1-yl)-N-[4-(methylsulfanyl]phenyl]pyrimidine-4,6-diamine]
0.01 to 0.1 µM | COc1ccc(Nc2nc(-n3c(C)nc4ccc(OC)cc43)nc(N)c2F)cc1 [Cpd 249, 5-fluoro-2-(6-methoxy-2-methyl-1H-benzimidazol-1-yl)-N-(4-methoxyphenyl)pyrimidine-4,6-diamine]
0.01 to 0.1 µM | COc1ccc(Nc2ccnc(-c3c(C)nc4ccccn34)n2)cc1 [Cpd 4, N-(4-methoxyphenyl)-2-(2-methylimidazo[1,2-a]pyridin-3-yl)pyrimidin-4-amine]
0.01 to 0.1 µM | COCc1nc2ccccc2n1-c1nc(N)c(F)c(Nc2ccc(OC(F)F)cc2)n1 [Cpd 216, N-[4-(difluoromethoxy)phenyl]-5-fluoro-2-[2-(methoxymethyl)-1H-benzimidazol-1-yl]pyrimidine-4,6-diamine]
0.001 to 0.01 µM | Cc1ccc(Nc2nc(-n3c(C4CC4)nc4ccccc43)nc(N)c2F)cc1 [Cpd 276, 2-(2-cyclopropyl-1H-benzimidazol-1-yl)-5-fluoro-N-(4-methylphenyl)pyrimidine-4,6-diamine]
0.1 to 3 µM | COCc1nc2ccccc2n1-c1nc(N)c(F)c(Nc2ccc(Cl)cc2)n1 [Cpd 219, N-(4-chlorophenyl)-5-fluoro-2-[2-(methoxymethyl)-1H-benzimidazol-1-yl]pyrimidine-4,6-diamine]
0.01 to 0.1 µM | COc1ccc(Nc2ccnc(-c3c(C(F)(F)F)nc4ccccn34)n2)cc1 [Cpd 12, N-(4-methoxyphenyl)-2-[2-(trifluoromethyl)imidazo[1,2-a]pyridin-3-yl]pyrimidin-4-amine]
0.01 to 0.1 µM | Nc1cc(Nc2ccc(C(F)(F)F)cc2)nc(-n2c(C3CC3)nc3ccc(F)cc32)n1 [Cpd 82, 2-(2-cyclopropyl-6-fluoro-1H-benzimidazol-1-yl)-N-[4-(trifluoromethyl)phenyl]pyrimidine-4,6-diamine]
0.1 to 3 µM | FC(F)(F)c1nc2ccccn2c1-c1nccc(Nc2ccc3c(c2)OCO3)n1 [Cpd 28, N-(1,3-benzodioxol-5-yl)-2-[2-(trifluoromethyl)imidazo[1,2-a]pyridin-3-yl]pyrimidin-4-amine]
0.1 to 3 µM | Cn1c(C(F)(F)F)c(-c2nccc(Nc3ccc(Br)cc3)n2)c2cc(Cl)ccc21 [Cpd 25, N-(4-bromophenyl)-2-[5-chloro-1-methyl-2-(trifluoromethyl)-1H-indol-3-yl]pyrimidin-4-amine]
0.1 to 3 µM | Cc1ccc(Nc2ccnc(-c3c(-c4ccccc4)nc4ccc(F)cn34)n2)cc1 [Cpd 27, 2-(6-fluoro-2-phenylimidazo[1,2-a]pyridin-3-yl)-N-(4-methylphenyl)pyrimidin-4-amine]

From patent publication US11180483B2, “Substituted reverse pyrimidine Bmi-1 inhibitors” (PTC Therapeutics, Inc., priority 2012, dated 2021)
